Measurements taken from patent US6281201A, “Base-modified derivatives of 2',5'-oligoadenylate and antiviral uses thereof” (Temple University- of the Commonwealth System of Higher …, priority 1999, dated 2001).

What was measured:
[1] = tested on: HIV-1 reverse-transcriptase; assay: Inhibition of HIV-1 reverse-transcriptase (RT) activity in culture supernatant of infected Sup T1 cells; type: cell-based; settings: 300 μM, 6 h pretreatment of Sup T1 cells; supernatant 96 h post-infection; mean of duplicates, variance did not exceed 5-10%
Protocol: (§1) Three studies were performed to determine the antiviral activity of the (2'-5')oligonucleotide derivatives of the present invention: (i) inhibition of HIV-1-replication, (ii) inhibition of HIV-1 reverse-transcriptase (RT) activity, and (iii) activation of recombinant human GST-RNase L. All compounds were tested at a concentration of 300 μM.
Sup T1 cells were treated with trimer core compound at 300 μM for 6 hours and then infected with HIV-1 at a multiplicity of infection of approximately 0.1. At 96 hours post-infection, culture supernatant was removed and HIV-1 RT activity was assayed […] as described by Henderson et al., Virology 1991, 182, 186. Briefly in this method, 25 μl of culture supernatant was added to a 50 μl cocktail containing 50 mM Tris (pH 8.0), 20 mM dithiothreitol, 10 mM MgCl2, 60 mM NaCl, 0.05% Nonidet p-40, 5 μg/ml oligodeoxythymidylic acid, 10 μg/ml polyriboadenylic acid, 10 μM deoxythymidine triphosphate and 1mCi [α^32 P]thymidine 5'-triphosphate. The mixture was incubated at 37° C. for 2 hours. Fifty microliters of the cocktail were then spotted onto diethylaminoethyl (DEAE) paper, dried, washed with 2×SSC solution (three times for 10 minutes each time) and 95% ethanol (two times for 5 minutes each time), dried and exposed to radiographic film for 18 to 24 hours at -80° C. The filters were cut and final quantitation was determined by scintillation spectrometry.
The data for the HIV-1 RT activity is shown in Table 1 as a percent of RT activity. Control values for RT activity ranged from 15,000 to 16,000 dpm [α^32 P] incorporated.
^c Percent inhibition of reverse-transcriptase (HIV-1 RT) activity.
Control values for HIV-1 RT activity ranged from 15000 to 16000 dpm
incorporated. The mean of duplicate determinations is shown; variance did

[2] = tested on: recombinant human GST-RNase L; assay: Activation of recombinant human GST-RNase L (hydrolysis of poly(U)-3'-[^32 P]pCp); type: biochemical; settings: 300 μM; mean of duplicates, variance did not exceed 5-10%
Protocol: as §1
Human recombinant RNase L was expressed in E. coli(DH5α) as a fusion protein of glutathione-S-transferase (GST). Activation of human recombinant GST-RNase L was measured as the percent of poly(U)[^32 P]pCp hydrolyzed in the presence of authentic 2',5'-oligoadenylate trimer core or trimer core analog of the invention as described by Sobol et al., J. Biol. Chem. 1995, 270, 5963. The data is shown in Table 1 as the mean of duplicate determinations.
^d The activation of recombinant human RNase L was measured as the
percent hydrolysis of poly(U)-3'-[^32 P]pCp in the presence of the
trimers 22-29. The mean of duplicate determinations is shown; variance did

HIV-1 = assay: Inhibition of HIV-1 replication: infected centers assay, HIV-1-induced syncytia formation; type: cell-based, HIV-1 strain IIIB; settings: 300 μM (table footnote: 300 μm [sic]); PBL treated 2 h, HIV-1 IIIB MOI approx. 0.1; Sup T1 cells, read at 72 hours; mean of triplicates, variance did not exceed 5-10%
Protocol: as §1
The infected centers assay as described by Henderson et al., Virology 1991, 182, 186, was used to measure the ability of the trimer core compounds of the invention to inhibit HIV-1 induced syncytia formation, an indicator of HIV-1 replication in T cells. Freshly isolated peripheral blood lymphocytes (PBL) were treated with 2-5A trimer or derivatives for 2 hours and infected with HIV-1 strain IIIB at a multiplicity of infection of approximately 0.1. The infected PBL were maintained in RPMI-1640 medium supplemented with 10% (v/v) heat-inactivated fetal calf serum at 37° C. in a humidified 5% CO2 in air atmosphere. After 48 hours, the cells were washed twice in Hank's balanced salt solution, serially diluted and seeded into multiple wells of a 96-well microtiter plate. Immediately, 2×10^5 exponentially growing Sup T1 cells were added to each well; Sup T1 cells readily form a syncytium with a cell which is productively infected with HIV-1. The wells were examined daily for the presence of syncytia, using a tissue culture microscope. The first signs of syncytia formation can be seen in 12 hours, with some complete syncytia developing by 24 hours. Final results were read at 72 hours. Each syncytium was counted as a single infected cell. The number of syncytia per seeded cell is determined and expressed as an infected center per infected cell. The number of syncytia per 10^4 cells was 121±16 for the control Sup T1 cells.
^b Inhibition of HIV-1 replication was determined by HIV-1-induced
syncytia formation (fold reduction) for each compound. The number of
syncytia/10^4 cells was 121 ± 16 for the control Sup T1 cells. The

Substance | RT: percent inhibition of reverse-transcriptase (HIV-1 RT) activity [1] [%] | RNase L: activation of recombinant human RNase L, percent hydrolysis of poly(U)-3'-[^32 P]pCp [2] [%] | Syn: inhibition of HIV-1 replication, HIV-1-induced syncytia formation (fold reduction) (HIV-1) [fold]
N^6 -Benzyladenylyl-(2'-5')-adenylyl-(2'-5')-adenosine Bis(triethylammonium) Salt [Compound 24] | 16.7 | 0 | > 1500
Adenylyl-(2'-5')-N^6 -benzyladenylyl-(2'-5')-adenosine Bis(triethylammonium) Salt [Compound 23] | 7.6 | 34.8 | > 1500
N^6 -Benzyladenylyl-(2'-5')-N^6 -benzyladenylyl-(2'-5')-N^6 -benzyladenosine Bis(triethylammonium) Salt [Compound 25] | 10.6 | 13.6 | > 1500
1-(β-D-Ribofuranosyl)-1H-1,2,4-triazole-3-carboxamide]yl-(2'-5')-adenylyl-(2'-5')-adenosine Bis(triethylammonium) Salt [Compound 28] | 99.5 | 0 | 1.2
Adenylyl-(2'-5')-[1-(β-D-ribofuranosyl)-1H-1,2,4-triazole-3-carboxamide]yl-(2'-5')-adenosine Bis(triethylammonium) Salt [Compound 27] | 99.7 | 9.4 | 7.0
Adenylyl-(2'-5')-adenylyl-(2'-5')-N^6 -benzyladenosine Bis(triethylammonium) Salt [Compound 22] | 33 | 37.4 | > 1500
Adenylyl-(2'-5')-adenylyl-(2'-5')-1-(β-D-ribofuranosyl)-1H-1,2,4-triazole-3-carboxamide Bis(triethylammonium) Salt [Compound 26] | 99.7 | 87.7 | 1.6
